Assay results as given in ChEMBL document CHEMBL1201862, “PubChem BioAssay data set” (2004).
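Five concentrations, 48 hours, 96-well plates. GI50: concentration for 50% inhibition of growth.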 Calls of active or inactive are those of the source. No stated cut-off is given here; in the data, active = GI50 up to about 1.1 µM and inactive = higher.

How the values were obtained:
Test in all cases: growth of human tumour cells (NCI), 48 h
SN12C = tested on: SN12C
CAKI-1 = tested on: CAKI-1
KM12 = tested on: KM12
HT-29 = tested on: HT-29
SNB-19 = tested on: SNB-19
OVCAR-8 = tested on: OVCAR-8
CCRF-CEM = tested on: CCRF-CEM
EKVX = tested on: EKVX
Malme-3M = tested on: Malme-3M
SNB-75 = tested on: SNB-75
NCI-H226 = tested on: NCI-H226
HOP-62 = tested on: HOP-62
A549 = tested on: A549
HCC 2998 = tested on: HCC 2998
K562 = tested on: K562
MDA-N = tested on: MDA-N
HCT-116 = tested on: HCT-116
786-0 = tested on: 786-0
SF-295 = tested on: SF-295
MDA-MB-231 = tested on: MDA-MB-231

SMILES: CCCCCCC(=O)OC[n+]1ccc2c(C)c3[nH]c4ccc(OC)cc4c3c(C)c2c1
- GI50 (SN12C): 0.0625 µM (active)
- GI50 (CAKI-1): 0.865 µM (active)
- GI50 (KM12): 0.186 µM (active)
- GI50 (HT-29): 0.0664 µM (active)
- GI50 (SNB-19): 0.308 µM (active)
- GI50 (OVCAR-8): 0.0752 µM (active)
- GI50 (CCRF-CEM): 0.0706 µM (active)
- GI50 (EKVX): 0.8 µM (active)
- GI50 (Malme-3M): 1.01 µM (active)
- GI50 (SNB-75): 1.13 µM (inactive)
- GI50 (NCI-H226): 0.476 µM (active)
- GI50 (HOP-62): 0.105 µM (active)
- GI50 (A549): 0.238 µM (active)
- GI50 (HCC 2998): 0.421 µM (active)
- GI50 (K562): 0.0611 µM (active)
- GI50 (MDA-N): 0.324 µM (active)
- GI50 (HCT-116): 0.054 µM (active)
- GI50 (786-0): 0.0708 µM (active)
- GI50 (SF-295): 0.277 µM (active)
- GI50 (MDA-MB-231): 0.269 µM (active)

SMILES: Cc1ccc2nc(C(C)C)c(=O)[nH]c2c1
- GI50 (SN12C): > 100 µM (inactive)
- GI50 (CAKI-1): 43.4 µM (inactive)
- GI50 (KM12): 31.8 µM (inactive)
- GI50 (HT-29): > 100 µM (inactive)
- GI50 (SNB-19): > 100 µM (inactive)
- GI50 (OVCAR-8): 26.1 µM (inactive)
- GI50 (CCRF-CEM): > 100 µM (inactive)
- GI50 (EKVX): > 100 µM (inactive)
- GI50 (Malme-3M): > 100 µM (inactive)
- GI50 (SNB-75): 42.4 µM (inactive)
- GI50 (NCI-H226): > 100 µM (inactive)
- GI50 (HOP-62): 17.2 µM (inactive)
- GI50 (A549): 57 µM (inactive)
- GI50 (HCC 2998): > 100 µM (inactive)
- GI50 (K562): > 100 µM (inactive)
- GI50 (MDA-N): > 100 µM (inactive)
- GI50 (HCT-116): > 100 µM (inactive)
- GI50 (786-0): 52.7 µM (inactive)
- GI50 (SF-295): 71 µM (inactive)
- GI50 (MDA-MB-231): > 100 µM (inactive)

SMILES: Cc1ccc(S(=O)(=O)N/N=C2\C=CC3(CC2)C(=O)N(I)c2ccccc23)cc1 (stereo not given)
- GI50 (SN12C): > 100 µM (inactive)
- GI50 (CAKI-1): > 100 µM (inactive)
- GI50 (KM12): 82.2 µM (inactive)
- GI50 (HT-29): > 100 µM (inactive)
- GI50 (SNB-19): > 100 µM (inactive)
- GI50 (OVCAR-8): > 100 µM (inactive)
- GI50 (CCRF-CEM): 75 µM (inactive)
- GI50 (EKVX): > 100 µM (inactive)
- GI50 (Malme-3M): 0.055 µM (active)
- GI50 (SNB-75): > 100 µM (inactive)
- GI50 (NCI-H226): > 100 µM (inactive)
- GI50 (HOP-62): > 100 µM (inactive)
- GI50 (A549): > 100 µM (inactive)
- GI50 (HCC 2998): > 100 µM (inactive)
- GI50 (K562): 25.1 µM (inactive)
- GI50 (MDA-N): 83 µM (inactive)
- GI50 (HCT-116): 87.5 µM (inactive)
- GI50 (786-0): > 100 µM (inactive)
- GI50 (SF-295): 41.5 µM (inactive)
- GI50 (MDA-MB-231): 58.7 µM (inactive)

SMILES: Cc1ncc2c(=O)c3c(oc2n1)c1ccccc1n3Cc1ccccc1
- GI50 (SN12C): > 100 µM (inactive)
- GI50 (CAKI-1): > 100 µM (inactive)
- GI50 (KM12): > 100 µM (inactive)
- GI50 (HT-29): > 100 µM (inactive)
- GI50 (SNB-19): > 100 µM (inactive)
- GI50 (OVCAR-8): > 100 µM (inactive)
- GI50 (CCRF-CEM): > 100 µM (inactive)
- GI50 (EKVX): > 100 µM (inactive)
- GI50 (Malme-3M): > 100 µM (inactive)
- GI50 (SNB-75): 29.5 µM (inactive)
- GI50 (NCI-H226): > 100 µM (inactive)
- GI50 (HOP-62): 27.4 µM (inactive)
- GI50 (A549): > 100 µM (inactive)
- GI50 (HCC 2998): > 100 µM (inactive)
- GI50 (K562): > 100 µM (inactive)
- GI50 (MDA-N): > 100 µM (inactive)
- GI50 (HCT-116): > 100 µM (inactive)
- GI50 (786-0): 84.9 µM (inactive)
- GI50 (SF-295): > 100 µM (inactive)
- GI50 (MDA-MB-231): > 100 µM (inactive)

SMILES: Cc1ccc(S(=O)(=O)Nn2c(O)c(C#N)c(-c3ccc([N+](=O)[O-])cc3)c(C#N)c2=O)cc1
- GI50 (SN12C): > 100 µM (inactive)
- GI50 (CAKI-1): > 100 µM (inactive)
- GI50 (KM12): > 100 µM (inactive)
- GI50 (HT-29): > 100 µM (inactive)
- GI50 (SNB-19): > 100 µM (inactive)
- GI50 (OVCAR-8): > 100 µM (inactive)
- GI50 (CCRF-CEM): > 100 µM (inactive)
- GI50 (EKVX): > 100 µM (inactive)
- GI50 (Malme-3M): > 100 µM (inactive)
- GI50 (SNB-75): > 100 µM (inactive)
- GI50 (NCI-H226): > 100 µM (inactive)
- GI50 (HOP-62): > 100 µM (inactive)
- GI50 (A549): > 100 µM (inactive)
- GI50 (HCC 2998): > 100 µM (inactive)
- GI50 (K562): > 100 µM (inactive)
- GI50 (MDA-N): > 100 µM (inactive)
- GI50 (HCT-116): > 100 µM (inactive)
- GI50 (786-0): > 100 µM (inactive)
- GI50 (SF-295): > 100 µM (inactive)
- GI50 (MDA-MB-231): > 100 µM (inactive)

SMILES: COc1c(C(=O)/C(=N/Nc2ccccc2)C(C)=O)c(O)c(OC)c2occc12
- GI50 (SN12C): 63.7 µM (inactive)
- GI50 (CAKI-1): > 100 µM (inactive)
- GI50 (KM12): 27.7 µM (inactive)
- GI50 (HT-29): 37.3 µM (inactive)
- GI50 (SNB-19): 36.1 µM (inactive)
- GI50 (OVCAR-8): 62.2 µM (inactive)
- GI50 (CCRF-CEM): 74.1 µM (inactive)
- GI50 (EKVX): 22.2 µM (inactive)
- GI50 (Malme-3M): 24.5 µM (inactive)
- GI50 (SNB-75): 19.8 µM (inactive)
- GI50 (NCI-H226): 52.1 µM (inactive)
- GI50 (HOP-62): 97.5 µM (inactive)
- GI50 (A549): 52.6 µM (inactive)
- GI50 (HCC 2998): 82.4 µM (inactive)
- GI50 (K562): 53.5 µM (inactive)
- GI50 (MDA-N): 32.1 µM (inactive)
- GI50 (HCT-116): 34 µM (inactive)
- GI50 (786-0): > 100 µM (inactive)
- GI50 (SF-295): 48.9 µM (inactive)
- GI50 (MDA-MB-231): 18.5 µM (inactive)

SMILES: CCOC(=O)NN(C(=O)OCC)C(=C(c1ccccc1)N1CCOCC1)N(NC(=O)OCC)C(=O)OCC
- GI50 (SN12C): > 100 µM (inactive)
- GI50 (CAKI-1): > 100 µM (inactive)
- GI50 (KM12): > 100 µM (inactive)
- GI50 (HT-29): > 100 µM (inactive)
- GI50 (SNB-19): > 100 µM (inactive)
- GI50 (OVCAR-8): > 100 µM (inactive)
- GI50 (CCRF-CEM): > 100 µM (inactive)
- GI50 (EKVX): > 100 µM (inactive)
- GI50 (Malme-3M): > 100 µM (inactive)
- GI50 (SNB-75): 44 µM (inactive)
- GI50 (NCI-H226): > 100 µM (inactive)
- GI50 (HOP-62): > 100 µM (inactive)
- GI50 (A549): > 100 µM (inactive)
- GI50 (HCC 2998): > 100 µM (inactive)
- GI50 (K562): > 100 µM (inactive)
- GI50 (MDA-N): > 100 µM (inactive)
- GI50 (HCT-116): > 100 µM (inactive)
- GI50 (786-0): > 100 µM (inactive)
- GI50 (SF-295): > 100 µM (inactive)
- GI50 (MDA-MB-231): > 100 µM (inactive)
